Data published in PMC11617876 (Heliyon, 2024).

Tested on: carrageenan-induced paw edema
Assay: carrageenan-induced rat paw edema, in vivo anti-inflammatory activity
Conditions: diclofenac sodium = 1

SMILES	Effectiveness
Oc1ccc(-c2nocc2-c2ccccc2)cc1 [5c, 4-(4-Phenyl-isoxazol-3-yl)-phenol]	0.81
O=[N+]([O-])c1ccc(-c2nocc2-c2ccccc2)cc1 [5f, 3-(4-Nitro-phenyl)-4-phenyl-isoxazole]	0.66
COc1cccc(-c2nocc2-c2ccccc2)c1 [5l, 3-(3-Methoxy-phenyl)-4-phenyl-isoxazole]	0.57
COc1ccccc1-c1nocc1-c1ccccc1 [5k, 3-(2-Methoxy-phenyl)-4-phenyl-isoxazole]	0.09
Clc1cccc(-c2nocc2-c2ccccc2)c1 [5i, 3-(3-Chloro-phenyl)-4-phenyl-isoxazole]	0.55
Oc1cccc(-c2nocc2-c2ccccc2)c1 [5d, 3-(4-Phenyl-isoxazol-3-yl)-phenol]	0.71
Brc1ccc(-c2nocc2-c2ccccc2)cc1 [5h, 3-(4-Bromo-phenyl)-4-phenyl-isoxazole]	0.02
Brc1cccc(-c2nocc2-c2ccccc2)c1 [5g, 3-(3-Bromo-phenyl)-4-phenyl-isoxazole]	0.22
O=[N+]([O-])c1cccc(-c2nocc2-c2ccccc2)c1 [5e, 3-(3-Nitro-phenyl)-4-phenyl-isoxazole]	0.16
Fc1ccc(-c2nocc2-c2ccccc2)cc1 [5j, 3-(4-Fluoro-phenyl)-4-phenyl-isoxazole]	0.80
O=C(O)Cc1ccccc1Nc1c(Cl)cccc1Cl [Diclofenac sodium, reference compound]	1
Clc1ccc(-c2nocc2-c2ccccc2)cc1 [5b, 3-(4-Chloro-phenyl)-4-phenyl-isoxazole]	0.83
COc1ccc(-c2nocc2-c2ccccc2)cc1 [5m, 3-(4-Methoxy-phenyl)-4-phenyl-isoxazole]	0.63

Tested on: albino rats
Assay: acute toxicity studies
Format: in vivo, rat
Conditions: oral

SMILES	toxicity in laboratory tests
Oc1ccc(-c2nocc2-c2ccccc2)cc1 [5c, 4-(4-Phenyl-isoxazol-3-yl)-phenol]	low toxicity
Oc1cccc(-c2nocc2-c2ccccc2)c1 [5d, 3-(4-Phenyl-isoxazol-3-yl)-phenol]	low toxicity
Clc1ccc(-c2nocc2-c2ccccc2)cc1 [5b, 3-(4-Chloro-phenyl)-4-phenyl-isoxazole]	low toxicity
